Measured values: patent US8481459B2, “Chemical inhibitors of ethylene biosynthesis” (Academia Sinica, priority 2010, dated 2013)

Tested on: gene expression in etiolated eto1-4 seedlings
Assay: Transcriptional profiling (ATH1 GeneChip microarray) of etiolated eto1-4 seedlings
Assay type: in vivo, Arabidopsis thaliana
Details: ratio eto1-4 treated to eto1-4 (no treatment)
Description: For chemical treatments, seeds were sown on 0.5×MS agar medium supplemented with 10 μM chemicals (AVG, compounds 9393, 9370, and 7303) or DMSO (as control). Arabidopsis seeds were stratified in the dark at 4° C. for 4 days, then germinated in the dark for 3 days at 22° C. Approximately 2,000 etiolated seedlings of the wild type or eto1-4 were used to collect tissues for preparation of total RNA in each microarray experiment with Arabidopsis ATH1 GeneChip (Affymetrix). Extraction of RNA followed an established protocol (Chang, et al. (1993) Plant Mol. Biol. Rep. 11, 113-117). Total RNA (10 μg) was used to prepare biotinylated cRNA for hybridization to ATH1 GeneChip in the experiments disclosed herein. Experiments were repeated by 2 independent biological duplicates, and candidate genes present in both experiments were selected for further analysis. The MASS method was used for data analysis and normalization by all sample medium. Candidate genes were selected by the following criteria. First, genes with 1.5-fold differential expression between the wild type and eto1-4 were selected as the master gene pool, which was then used for comparison in treatments with AVG and individual exemplary compounds. Data were presented in hierarchical clustering and Venn diagram format. Agilent GeneSpring GX and Bioconductor software were used to analyze the expression profile data. Gene Ontology descriptions were generated by GeneSpring GX and further referred to the TAR GO database. Raw data are available in the GEO database (http://www.ncbi.nlm.nih.gov/geo) with Accession no. GSE20897.
The filtered and normalized expression data set from 22810 probes on the ATH1 Genechip was used for hierarchical clustering of gene expression profiles for comparison between AVG and the exemplary invention compounds in eto1-4. It was identified that 1,446 genes show at least 1.5-fold difference in expression between the WT and eto1-4 and used them as the master gene pool for clustering analysis (FIG. 7A). […] These genes likely contribute to the etiolated phenotype of eto1-4 by responding to elevated endogenous ethylene. To determine whether the exemplary compounds have specific r overlapping functions with AVG to suppress the eto1-4 phenotype, genes that are regulated by individual exemplary invention compounds and AVG for Venn diagram analysis were clustered (FIG. 7B). More than 63% of genes (356/561 for compound 9393; 389/561 for compound 9370; 399/561 for compound 7303; FIG. 7B) with expression associated with AVG were co-regulated by the exemplary invention compounds, which indicates an overlap function in suppression of the ethylene phenotype in eto1-4. […] Next genes co-regulated by all of the exemplary invention compounds and AVG were examined by performing a clustering analysis using the co-regulated genes identified in FIG. 7B: 356 (compound 9393 vs AVG), 389 (compound 9370 vs AVG) and 399 genes (compound 7303 vs AVG). It was uncovered that 276 genes were co-regulated by all of the exemplary invention compounds and AVG (FIG. 7C and Table 2). On the basis of GO descriptions generated by Gene Spring GX and TAIR database, the 276 genes were divided into subgroups related to their biological functions (Table 2). […] In addition, stress- and pathogenesis-related genes were among the co-regulated genes, possibly because ethylene is involved in both biotic and abiotic stresses.
Genes (1446 non-redundant loci) were selected by 1.5-fold differential expression between eto1-4 and WT as the master pool for analysis. These genes were used for comparison between chemical treatments by AVG and the exemplary invention compounds. The finalized 276 genes that are co-regulated by AVG and all of the exemplary invention compounds are shown. Locus ID also present in Nemhauser et al. (Nemhauser, et al. (2006) Cell 126, 467-475).

Cc1ccc(C2CC(=O)c3cnc(NC4CCCC4)nc3C2)cc1 (centres unmarked) [Compound 9370]
Signal Fold Change AT3G14850, unknown biological function: 0.20
Signal Fold Change AT3G15890 protein kinase: 1.86
Signal Fold Change AT3G16450 jacalin lectin protein: 2.54
Signal Fold Change AT3G16470 jacalin lectin protein: 5.60
Signal Fold Change AT3G16690, unknown biological function: 3.80
Signal Fold Change AT3G17680, unknown biological function: 0.24
Signal Fold Change AT3G20130 cytochrome P450: 1.73
Signal Fold Change AT3G21770 peroxidase 30: 2.01
Signal Fold Change AT3G22620 lipid transfer protein: 2.14
Signal Fold Change AT3G23150 ethylene receptor, putative (ETR2): 0.16
Signal Fold Change AT3G23800, unknown biological function: 0.40
Signal Fold Change AT3G24670, unknown biological function: 0.32
Signal Fold Change AT3G25710 bHLH protein: 2.47
Signal Fold Change AT3G25730 AP2-containing transcription factor: 0.30
Signal Fold Change AT3G25980 mitotic spindle checkpoint protein: 2.23
Signal Fold Change AT3G27580 protein kinase: 0.56
Signal Fold Change AT3G28290, unknown biological function: 0.18
Signal Fold Change AT3G29250 short-chain dehydrogenase: 5.52
Signal Fold Change AT3G30775 proline oxidase, mitochondrial: 3.13
Signal Fold Change AT3G43270 pectinesterase protein: 0.20
Signal Fold Change AT3G44820, response to light stimulus, phototropic-responsive NPH3 protein: 2.56
Signal Fold Change AT3G44990 endo-xyloglucan transferase: 0.22
Signal Fold Change AT3G45710 proton-dependent oligopeptide transport (POT) protein: 2.40
Signal Fold Change AT3G46130 myb transcription factor (MYB48): 2.15
Signal Fold Change AT3G46700 UDP-glucosyl transferase: 5.15
Signal Fold Change AT3G47210, unknown biological function: 2.73
Signal Fold Change AT3G47250, unknown biological function: 4.89
Signal Fold Change AT3G49780 phytosulfokines 3 (PSK3): 7.46
Signal Fold Change AT3G50660 steroid 22-alpha-hydroxylase: 4.00
Signal Fold Change AT3G51410, unknown biological function: 0.32
Signal Fold Change AT3G51970, unknown biological function: 2.88
Signal Fold Change AT3G52180 protein tyrosine phosphatase: 0.25
Signal Fold Change AT3G52920 expressed protein (defense response): 2.82
Signal Fold Change AT3G53540, unknown biological function: 0.35
Signal Fold Change AT3G56480, unknown biological function: 2.39
Signal Fold Change AT3G58710 WRKY transcription factor: 2.65
Signal Fold Change AT3G59370, unknown biological function: 2.99
Signal Fold Change AT3G59710 short-chain dehydrogenase: 0.38
Signal Fold Change AT3G59900, unknown biological function: 0.39
Signal Fold Change AT3G60520, unknown biological function: 0.28
Signal Fold Change AT3G61160 shaggy-related protein kinase beta/ASK-beta (ASK2): 3.86
Signal Fold Change AT4G00730 anthocyaninless2: 0.54
Signal Fold Change AT4G01410, unknown biological function: 0.27
Signal Fold Change AT4G03140 short-chain dehydrogenase: 0.38
Signal Fold Change AT4G08300, unknown biological function: 3.20
Signal Fold Change AT4G09570 calcium-dependent protein kinase: 0.35
Signal Fold Change AT4G10910, unknown biological function: 4.65
Signal Fold Change AT4G11190 disease resistance-responsive protein: 9.98
Signal Fold Change AT4G11280 ACC synthase 6: 2.29
Signal Fold Change AT4G11310 cysteine proteinase: 9.04
Signal Fold Change AT4G12080, unknown biological function: 2.05
Signal Fold Change AT4G12410 auxin-responsive protein: 2.89
Signal Fold Change AT4G12480 lipid transfer protein: 0.17
Signal Fold Change AT4G13210, unknown biological function: 0.25
Signal Fold Change AT4G15550 UDP-glucose:indole-3-acetate beta-D-glucosyltransferase: 0.28
Signal Fold Change AT4G15920, unknown biological function: 17.08
Signal Fold Change AT4G17220 expressed protein (cytoskeleton organization and biogenesis): 2.35
Signal Fold Change AT4G18340 glycosyl hydrolase: 2.70
Signal Fold Change AT4G23410 senescence-associated protein: 2.34
Signal Fold Change AT4G25780, unknown biological function: 11.52
Signal Fold Change AT4G26010 peroxidase: 0.38
Signal Fold Change AT4G28085, unknown biological function: 4.84
Signal Fold Change AT4G31000, unknown biological function: 0.61
Signal Fold Change AT4G32920, unknown biological function: 2.35
Signal Fold Change AT4G34560, unknown biological function: 1.85
Signal Fold Change AT4G34760 auxin-responsive protein: 0.15
Signal Fold Change AT4G35060 copper chaperone: 3.80
Signal Fold Change AT4G35150, unknown biological function: 0.28
Signal Fold Change AT4G36520, unknown biological function: 2.70
Signal Fold Change AT4G37220 stress-responsive protein: 6.12
Signal Fold Change AT4G38690, signal transduction, 1-phosphatidylinositol: 3.04
Signal Fold Change AT4G39210 ADP-glucose pyrophosphorylase: 0.28
Signal Fold Change AT4G39800 inositol-3-phosphate synthase isozyme 1: 2.08
Signal Fold Change AT4G39840, unknown biological function: 0.29
Signal Fold Change AT5G01210, unknown biological function: 0.31
Signal Fold Change AT5G01300, unknown biological function: 1.40
Signal Fold Change AT5G02260, cell wall organization and biogenesis, expansin (EXP9): 0.10
Signal Fold Change AT5G02540 short-chain dehydrogenase: 0.12
Signal Fold Change AT5G03160 DNAJ heat shock N-terminal domain-containing protein: 2.78
Signal Fold Change AT5G04080, unknown biological function: 2.55
Signal Fold Change AT5G05180, unknown biological function: 1.95
Signal Fold Change AT5G06200, unknown biological function: 2.10
Signal Fold Change AT5G08240, unknown biological function: 2.31
Signal Fold Change AT5G08260 serine carboxypeptidase S10 protein: 0.38
Signal Fold Change AT5G08370 alpha-galactosidase: 4.06
Signal Fold Change AT5G09980 expressed protein (defense response): 0.38
Signal Fold Change AT5G10720 sensory transduction histidine kinase: 0.32
Signal Fold Change AT5G11540, unknown biological function: 5.68
Signal Fold Change AT5G12170, response to cadmium ion, expressed protein: 0.34
Signal Fold Change AT5G13870 endo-xyloglucan transferase: 0.11
Signal Fold Change AT5G13910 AP2/EREBP-like transcription factor: 0.39
Signal Fold Change AT5G14780 formate dehydrogenase: 0.35
Signal Fold Change AT5G14920 gibberellin-regulated protein: 0.31
Signal Fold Change AT5G15290, unknown biological function: 2.42
Signal Fold Change AT5G15530 biotin carboxyl carrier protein 2: 0.38
Signal Fold Change AT5G15830 bZIP transcription factor protein: 4.18
Signal Fold Change AT5G18470, unknown biological function: 0.18
Signal Fold Change AT5G18670 beta-amylase: 0.40
Signal Fold Change AT5G18860, unknown biological function: 2.08
Signal Fold Change AT5G18970, unknown biological function: 3.58
Signal Fold Change AT5G19890 peroxidase: 0.08
Signal Fold Change AT5G19930, unknown biological function: 1.64
Signal Fold Change AT5G20410 monogalactosyldiacylglycerol synthase: 3.75
Signal Fold Change AT5G22310, unknown biological function: 0.31
Signal Fold Change AT5G22860 serine carboxypeptidase S28 protein: 3.54
Signal Fold Change AT5G23750, unknown biological function: 4.16
Signal Fold Change AT5G24870, unknown biological function: 2.17
Signal Fold Change AT5G25140 cytochrome P450: 5.04
Signal Fold Change AT5G25160 zinc finger (C2H2 type) protein: 3.03
Signal Fold Change AT5G25190 ethylene-responsive element-binding protein: 0.40
Signal Fold Change AT5G34940, unknown biological function: 0.46
Signal Fold Change AT5G37300, unknown biological function: 3.03
Signal Fold Change AT5G38930, unknown biological function: 0.24
Signal Fold Change AT5G39860 bHLH protein: 3.46
Signal Fold Change AT5G41900 hydrolase: 3.08
Signal Fold Change AT5G44410, unknown biological function: 3.27
Signal Fold Change AT5G44580, unknown biological function: 0.21
Signal Fold Change AT5G46890 lipid transfer protein: 3.94
Signal Fold Change AT5G47240, unknown biological function: 4.32
Signal Fold Change AT5G47330 palmitoyl protein thioesterase protein: 3.02
Signal Fold Change AT5G47450 major intrinsic protein: 2.71
Signal Fold Change AT5G47950, unknown biological function: 2.55
Signal Fold Change AT5G48490 lipid transfer protein: 12.97
Signal Fold Change AT5G48900, unknown biological function: 0.48
Signal Fold Change AT5G49900, unknown biological function: 2.96
Signal Fold Change AT5G50720 ABA-responsive protein (HVA22e): 2.65
Signal Fold Change AT5G52120 SKP1 interacting partner 3 protein: 7.26
Signal Fold Change AT5G53190, unknown biological function: 6.92
Signal Fold Change AT5G53830, unknown biological function: 0.39
Signal Fold Change AT5G56320, cell wall organization and biogenesis, expansin (EXP14): 2.90
Signal Fold Change AT5G58660, unknown biological function: 0.27
Signal Fold Change AT5G59540 oxidoreductase: 0.40
Signal Fold Change AT5G63450 cytochrome P450: 8.71
Signal Fold Change AT5G63650 serine/threonine protein kinase: 0.33
Signal Fold Change AT5G65970 seven transmembrane MLO protein: 2.88
Signal Fold Change AT5G66310, microtubule-based movement, kinesin motor protein: 0.45
Signal Fold Change AT5G66400 dehydrin (RAB18): 0.81
Signal Fold Change AT5G66440, unknown biological function: 0.31
Signal Fold Change AT5G66460 (1-4)-beta-mannan endohydrolase: 0.42
Signal Fold Change AT5G66780, unknown biological function: 0.86
